Data taken from patent publication US20040072992A1, “Novel peptide capable of specifically acting on biological membrane” (priority 2002, published 2004).
In brackets after ≈: the same amount, converted by molar mass. Where two headings read alike, the source gives them in different places. Where a SMILES comes first, the peptide text is derived from it. Where no end group is shown, it is not given here.

Key:
B. subtilis IFO13722 = conditions: IFO13722, 18 h
B. sereus IFO3457 = conditions: 18 h
S. aureus IFO13276 = conditions: IFO13276, 18 h
S. aureus JCM2413 = conditions: JCM2413, 18 h
E. coli JCM1649 = conditions: JCM1649, 18 h
E. coli CR-3 = conditions: CR-3, 18 h
E. coli CE-273 = conditions: CE-273, 18 h
S. enteritidis ATCC1891 = conditions: ATCC1891, 18 h
S. enteritidis ATC14028 = conditions: ATC14028, 18 h
erythrocytes = conditions: for Hemolytic property (relative value): red cells of human

| Molecule | MIC (B. subtilis IFO13722) | MIC (B. sereus IFO3457) | MIC (S. aureus IFO13276) | MIC (S. aureus JCM2413) | MIC (E. coli JCM1649) | MIC (E. coli CR-3) | MIC (E. coli CE-273) | MIC (S. enteritidis ATCC1891) | MIC (S. enteritidis ATC14028) | Hemolytic property, in words (erythrocytes) | Hemolytic property (relative value) (erythrocytes; 1 μM) | Hemolytic property (relative value) (erythrocytes; 5 μM) | Hemolytic property (relative value) (erythrocytes; 10 μM) | Hemolytic property (relative value) (erythrocytes; 100 μM) |
| --- | --- | --- | --- | --- | --- | --- | --- | --- | --- | --- | --- | --- | --- | --- |
| KVLALRL [KVL+, KVL ALRL] | >200 µM | >200 µM | >200 µM | >200 µM | >200 µM | >200 µM | 3.1 µM | >200 µM | >200 µM |  |  |  |  |  |
| CC(C)C[C@H](NC(=O)[C@@H](NC(=O)[C@@H](N)CCCNC(=N)N)C(C)C)C(=O)O [RVL] (H-Arg-Val-Leu-OH) | >800 µM | >800 µM | >800 µM | >800 µM | >800 µM | 800 µM (≈ 309 µg/mL) | >800 µM | >800 µM | 800 µM (≈ 309 µg/mL) |  |  |  |  |  |
| CC(C)C[C@H](NC(=O)[C@@H](NC(=O)[C@@H](N)CCCCN)C(C)C)C(=O)O [KVL] (H-Lys-Val-Leu-OH) | 800 µM (≈ 287 µg/mL) | 800 µM (≈ 287 µg/mL) | 800 µM (≈ 287 µg/mL) | 400 µM (≈ 143 µg/mL) | >800 µM | 800 µM (≈ 287 µg/mL) | 800 µM (≈ 287 µg/mL) | >800 µM | 800 µM (≈ 287 µg/mL) |  |  |  |  |  |
| INWKGIAAMAKKLL [mastoparanX, INWKGIAAMAKKLL, reference compound] | 3.1 µM | 3.1 µM | 1.56 µM | 12.5 µM | 3.1 µM | 3.1 µM | 3.1 µM | 3.1 µM | 6.3 µM | high level of hemolytic property | 5.4% | 18.8% | 86% | 93% |
| CC(C)C[C@H](NC(=O)[C@H](C)N)C(=O)N[C@@H](CCCNC(=N)N)C(=O)O [ALR] (H-Ala-Leu-Arg-OH) | >200 µM | >200 µM | >200 µM | >200 µM | >200 µM | >200 µM | >200 µM | >200 µM | >200 µM |  |  |  |  |  |
| GWALR [Ribo-2, GWALR] | >800 µM | >800 µM | >800 µM | 800 µM | >800 µM | 800 µM | >800 µM | 800 µM | 800 µM |  |  |  |  |  |
| KVLKVLKVL [KVL3, KVLKVLKVL] | >200 µM | >200 µM | >200 µM | >200 µM | >200 µM | >200 µM | >200 µM | >200 µM | >200 µM |  |  |  |  |  |
| RLAWG [Ribo-1, RLAWG] | >800 µM | >800 µM | >800 µM | 800 µM | >800 µM | 800 µM | >800 µM | >800 µM | 800 µM |  |  |  |  |  |
| CC(C)[C@H](NC(=O)[C@@H](N)CCCCN)C(=O)NCC(=O)O [KVG] (H-Lys-Val-Gly-OH) | >800 µM | >800 µM | >800 µM | 800 µM (≈ 242 µg/mL) | >800 µM | 800 µM (≈ 242 µg/mL) | 800 µM (≈ 242 µg/mL) | >800 µM | 800 µM (≈ 242 µg/mL) |  |  |  |  |  |
| KNRKGIAGMAKKLLGNKWKLM [mastWR] | 50 µM | 50 µM | 50 µM | 50 µM | 50 µM | 25 µM | 12.5 µM | 12.5 µM | 25 µM |  |  |  |  |  |
| CC(C)[C@H](NC(=O)[C@@H](N)CCCNC(=N)N)C(=O)NCC(=O)O [RVG] (H-Arg-Val-Gly-OH) | >800 µM | >800 µM | >800 µM | 800 µM (≈ 264 µg/mL) | >800 µM | 800 µM (≈ 264 µg/mL) | 800 µM (≈ 264 µg/mL) | >800 µM | 800 µM (≈ 264 µg/mL) |  |  |  |  |  |
| KNWKGIAGMAKKLLGKNWKLM-NH2 [mast21N] | 3.1 µM | 3.1 µM | 12.5 µM | 12.5 µM | 3.1 µM | 3.1 µM | 3.1 µM | 6.3 µM | 6.3 µM |  |  |  |  | 13% |
| KVLINWKGIAAMAKKII [KVL-mastX, KVL INWKGIAAMAKKII] | 25 µM | >200 µM | >200 µM | 50 µM | 100 µM | 50 µM | 25 µM | 100 µM | >200 µM |  |  |  |  |  |
| RVGINWKGIAAMAKKII [RVG-mastX, RVG INWKGIAAMAKKII] | 50 µM | >200 µM | >200 µM | 200 µM | >200 µM | 50 µM | 50 µM | 100 µM | 200 µM |  |  |  |  |  |
| ALRALRALRALRALR [ALR5, ALRALRALRALRALR] | 25 µM | 100 µM | 400 µM | 200 µM | 100 µM |  | 100 µM | 100 µM |  |  |  |  |  |  |
